Here are results for one compound from ChEMBL document CHEMBL4680193, “Isoindoline scaffold-based dual inhibitors of HDAC6 and HSP90 suppressing the growth of lung cancer in vitro and in vivo” (Eur J Med Chem, 2020).

A short description of series [1]: Toxicity in BALB/c mouse xenografted with human NCI-H1975 cells assessed as reduction in body weight 50 to 100 mg/kg, ip administered for 2 weeks and measured after 2 week. The format is organism-based. The following applies: in vivo, 336 h, dose 50-100 mg/kg. For orientation: In xenograft studies the graft and the host belong to different species.
Series [2] concerns NCI-H1975. Kind of series: cells. The format is functional. The note with it: Homo sapiens, time 48 hrs.
Series [3] is filed under the species Homo sapiens. The experiment in a line: Selectivity index, ratio of IC50 for recombinant human HDAC8 to IC50 for recombinant human HDAC6.
The target in series [4] is T1, Heat shock protein HSP90 (Homo sapiens) (UniProt P07900+P08238). The experiment in a line: Inhibition of HSP90 in human NCI-H1975 cells assessed as upregulation of HSP70 expression at 0.03 to 0.3 uM measured upto 24 hrs by Western blot analysis. The format is cell-based. The following applies: dose 0.03-0.3 µM, time hrs <=24.
The target of series [5] is T1, Heat shock protein HSP90 (Homo sapiens). The experiment in a line: Inhibition of HSP90 in human NCI-H1975 cells assessed as decrease in Akt Ser473 phosphorylation at 3 uM measured after 6 hrs by Western blot analysis. The format is cell-based. (In general: A western blot detects proteins with antibodies after separation by electrophoresis.)
For series [6], the system named is NCI-H1975. The experiment in a line: Induction of apoptosis in human NCI-H1975 cells assessed as increase in caspase 9 activation incubated for 48 hrs by PI staining based Western blot analysis. The format is functional, cell-based. The following applies: dose 0.1-3 µM.
Series [7] has as its system NCI-H1975. Kind of series: Induction of apoptosis in human NCI-H1975 cells assessed as increase in gammaH2AX activation incubated for 48 hrs by PI staining based Western blot analysis. The following applies: dose 0.1-3 µM. The format is functional, cell-based.
Series [8] concerns NCI-H1975. Kind of series: Antitumor activity against human NCI-H1975 cells xenografted in BALB/c mouse assessed as reduction in tumor volume at 50 mg/kg, ip administered for 2 weeks and measured after 2 week. The format is functional, organism-based.
Series [9] deals with NCI-H1975. Kind of series: Antitumor activity against human NCI-H1975 cells xenografted in BALB/c mouse assessed as reduction in tumor growth at 50 mg/kg, ip administered for 2 weeks and measured after 2 week relative to control. The format is functional. The following applies: 336 h, read-out: TGI.
For series [10], the system named is NCI-H1975. The experiment in a line: Antitumor activity against human NCI-H1975 cells xenografted in BALB/c mouse assessed as reduction in tumor growth at 50 mg/kg, ip administered for 2 weeks in presence of afatinib and measured after 2 week relative to control. The format is functional. The following applies: 336 h, read-out: TGI.

Calls of active or inactive are those of the source. The rule behind the calls is not given here.

Usually GI50 stands for the concentration at which growth is held to half of that of the control. Low readings indicate greater sensitivity of the cells, high ones lower sensitivity of the cells.

As to `CC(C)c1cc(C(=O)N2Cc3ccc(NC(=O)CCCCCCCCC(=O)NO)cc3C2)c(O)cc1O`, the Activity result was “Non-Toxic” in series [1], “Dose-dependent effect” in [6] and “Dose-dependent effect” in series [7]. Also, the GI50 in series [2] came out at 520 nM. For the same compound, in [3], the Ratio IC50 stood at 861. The inhibition entry in series [4] and in series [5] was “Active” in each case. Further, the result in [8] was Active. In addition, the inhibition in vivo at 50 mg/kg in series [9] was 44.8%; in series [10] it was 72.3%.
